Measurements: the NIST ThermoML archive (doi:10.1021/acs.jced.6b00542)

Test: xn = mol fraction of the nth substance listed
Settings: for speed of sound: 100 kPa, Frequency=3 MHz, Sing-around technique in a fixed-path interferometer; for speed of sound / viscosity / mass density: Liquid; for viscosity / mass density: 102 kPa; for viscosity: Concentric cylinders viscometry; for mass density: Vibrating tube method; for surface tension liquid-gas: 294.5 K, Pendant drop shape

CCCCc1ccccc1 [butylbenzene] + CCCCCCCCCCCC
Settings | mass density [kg/m3] | speed of sound [m/s] | viscosity [mPa·s]
293.15 K, x1 = 0.1241 | 758.28 | 1300.2 | 1.38
293.15 K, x1 = 0.2414 | 768.11 | 1302.8 | 1.31
293.15 K, x1 = 0.3524 | 778.18 | 1306.4 | 1.24
293.15 K, x1 = 0.4583 | 788.6 | 1310.3 | 1.19
293.15 K, x1 = 0.5593 | 799.56 | 1315.4 | 1.15
293.15 K, x1 = 0.6552 | 810.7 | 1321.3 | 1.11
293.15 K, x1 = 0.7575 | 823.88 | 1328.6 | 1.08
293.15 K, x1 = 0.8349 | 834.67 | 1335.5 | 1.06
293.15 K, x1 = 0.9194 | 847.33 | 1343.9 | 1.04
293.15 K, x1 = 1 | 860.51 | 1353.7 | 1.05
303.15 K, x1 = 0.1241 | 750.96 | 1262 | 1.17
303.15 K, x1 = 0.2414 | 760.73 | 1264.8 | 1.12
303.15 K, x1 = 0.3524 | 770.74 | 1268.4 | 1.07
303.15 K, x1 = 0.4583 | 781.11 | 1272.3 | 1.03
303.15 K, x1 = 0.5593 | 791.97 | 1277.3 | 0.996
303.15 K, x1 = 0.6552 | 803.03 | 1283.1 | 0.968
303.15 K, x1 = 0.7575 | 816.12 | 1290.4 | 0.941
303.15 K, x1 = 0.8349 | 826.84 | 1297 | 0.925
303.15 K, x1 = 0.9194 | 839.4 | 1305.4 | 0.909
303.15 K, x1 = 1 | 852.49 | 1314.9 | 0.91
313.15 K, x1 = 0.1241 | 743.61 | 1224.4 | 1.01
313.15 K, x1 = 0.2414 | 753.32 | 1227.2 | 0.968
313.15 K, x1 = 0.3524 | 763.26 | 1230.8 | 0.931
313.15 K, x1 = 0.4583 | 773.56 | 1234.7 | 0.9
313.15 K, x1 = 0.5593 | 784.35 | 1239.7 | 0.873
313.15 K, x1 = 0.6552 | 795.32 | 1245.4 | 0.85
313.15 K, x1 = 0.7575 | 808.33 | 1252.5 | 0.829
313.15 K, x1 = 0.8349 | 818.96 | 1259.1 | 0.816
313.15 K, x1 = 0.9194 | 831.44 | 1267.3 | 0.804
313.15 K, x1 = 1 | 844.43 | 1276.6 | 0.801
323.15 K, x1 = 0.1241 | 736.23 | 1187.2 | 0.879
323.15 K, x1 = 0.2414 | 745.87 | 1190 | 0.846
323.15 K, x1 = 0.3524 | 755.75 | 1193.7 | 0.817
323.15 K, x1 = 0.4583 | 765.97 | 1197.6 | 0.793
323.15 K, x1 = 0.5593 | 776.69 | 1202.5 | 0.771
323.15 K, x1 = 0.6552 | 787.58 | 1208.1 | 0.753
323.15 K, x1 = 0.7575 | 800.5 | 1215.2 | 0.736
323.15 K, x1 = 0.8349 | 811.06 | 1221.6 | 0.725
323.15 K, x1 = 0.9194 | 823.44 | 1229.7 | 0.716
323.15 K, x1 = 1 | 836.34 | 1238.7 | 0.713
333.15 K, x1 = 0.1241 | 728.82 | 1150.5 | 0.771
333.15 K, x1 = 0.2414 | 738.39 | 1153.4 | 0.745
333.15 K, x1 = 0.3524 | 748.19 | 1157 | 0.722
333.15 K, x1 = 0.4583 | 758.34 | 1161 | 0.703
333.15 K, x1 = 0.5593 | 768.98 | 1165.8 | 0.686
333.15 K, x1 = 0.6552 | 779.81 | 1171.3 | 0.671
333.15 K, x1 = 0.7575 | 792.63 | 1178.4 | 0.657
333.15 K, x1 = 0.8349 | 803.11 | 1184.6 | 0.649
333.15 K, x1 = 0.9194 | 815.41 | 1192.5 | 0.64
333.15 K, x1 = 1 | 828.21 | 1201.4 | 0.636
343.15 K, x1 = 0.1241 | 721.2 | – | 0.683
343.15 K, x1 = 0.2414 | 730.8 | – | 0.662
343.15 K, x1 = 0.3524 | 740.5 | – | 0.643
343.15 K, x1 = 0.4583 | 750.7 | – | 0.627
343.15 K, x1 = 0.5593 | 761.2 | – | 0.614
343.15 K, x1 = 0.6552 | 771.9 | – | 0.602
343.15 K, x1 = 0.7575 | 784.7 | – | 0.59
343.15 K, x1 = 0.8349 | 795.1 | – | 0.583
343.15 K, x1 = 0.9194 | 807.2 | – | 0.576
343.15 K, x1 = 1 | 819.9 | – | 0.571
353.15 K, x1 = 0.1241 | 713.7 | – | 0.608
353.15 K, x1 = 0.2414 | 723.2 | – | 0.591
353.15 K, x1 = 0.3524 | 732.9 | – | 0.576
353.15 K, x1 = 0.4583 | 743 | – | 0.563
353.15 K, x1 = 0.5593 | 753.4 | – | 0.552
353.15 K, x1 = 0.6552 | 764 | – | 0.542
353.15 K, x1 = 0.7575 | 776.7 | – | 0.532
353.15 K, x1 = 0.8349 | 787 | – | 0.526
353.15 K, x1 = 0.9194 | 799.1 | – | 0.521
353.15 K, x1 = 1 | 811.7 | – | 0.516
363.15 K, x1 = 0.1241 | 706.1 | – | 0.546
363.15 K, x1 = 0.2414 | 715.6 | – | 0.532
363.15 K, x1 = 0.3524 | 725.1 | – | 0.519
363.15 K, x1 = 0.4583 | 735.2 | – | 0.508
363.15 K, x1 = 0.5593 | 745.5 | – | 0.499
363.15 K, x1 = 0.6552 | 756 | – | 0.491
363.15 K, x1 = 0.7575 | 768.6 | – | 0.483
363.15 K, x1 = 0.8349 | 778.9 | – | 0.478
363.15 K, x1 = 0.9194 | 790.9 | – | 0.473
363.15 K, x1 = 1 | 803.4 | – | 0.469
373.15 K, x1 = 0.1241 | 698.5 | – | 0.493
373.15 K, x1 = 0.2414 | 707.8 | – | 0.481
373.15 K, x1 = 0.3524 | 717.3 | – | 0.471
373.15 K, x1 = 0.4583 | 727.2 | – | 0.461
373.15 K, x1 = 0.5593 | 737.5 | – | 0.454
373.15 K, x1 = 0.6552 | 747.9 | – | 0.447
373.15 K, x1 = 0.7575 | 760.5 | – | 0.44
373.15 K, x1 = 0.8349 | 770.7 | – | 0.436
373.15 K, x1 = 0.9194 | 782.6 | – | 0.432
373.15 K, x1 = 1 | 795 | – | 0.43

Settings | surface tension liquid-gas [mN/m]
x1 = 0.1241 | 25.4
x1 = 0.2414 | 26
x1 = 0.3524 | 26.3
x1 = 0.4583 | 26.2
x1 = 0.5593 | 26.7
x1 = 0.6552 | 27
x1 = 0.7575 | 27.5
x1 = 0.8349 | 27.7
x1 = 0.9194 | 28.4
